# According to PubChem BioAssay AID1259375 (The Scripps Research Institute Molecular Screening Center, 2018):
# The source made the active and inactive calls. The rule behind the calls is not given here.
# Target: Microphthalmia-associated transcription factor (Homo sapiens) (UniProt O75030)
# Experiment: MITF inhibitors by FRET titration, dose response, biochemical, high throughput (AID 1259375);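 note: FRET between CFP-tagged and YFP-tagged MITF protein partners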
# Details: FRET biochemical assay, MITF inhibition
# Chain of Microphthalmia-associated transcription factor (Homo sapiens) (O75030 whole entry, looked up): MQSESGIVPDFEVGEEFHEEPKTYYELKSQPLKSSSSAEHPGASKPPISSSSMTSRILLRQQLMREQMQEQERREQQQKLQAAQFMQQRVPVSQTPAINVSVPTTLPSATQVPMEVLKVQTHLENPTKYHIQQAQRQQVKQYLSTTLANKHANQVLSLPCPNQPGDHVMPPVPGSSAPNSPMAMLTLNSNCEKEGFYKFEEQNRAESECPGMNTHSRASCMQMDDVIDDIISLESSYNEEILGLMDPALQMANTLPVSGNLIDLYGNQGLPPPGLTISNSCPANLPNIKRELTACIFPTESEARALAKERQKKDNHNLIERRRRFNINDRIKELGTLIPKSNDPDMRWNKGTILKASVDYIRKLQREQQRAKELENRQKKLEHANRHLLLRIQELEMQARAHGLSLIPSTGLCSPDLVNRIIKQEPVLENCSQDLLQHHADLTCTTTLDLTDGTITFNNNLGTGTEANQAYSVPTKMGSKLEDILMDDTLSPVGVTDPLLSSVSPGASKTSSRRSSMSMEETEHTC
row,Structure (SMILES),IC50
1,COc1ccc(CCNC(=O)CN2CCN(Cc3nc(-c4ccco4)cs3)CC2)cc1OC,> 6.48 µM (inactive)
2,CNC(=O)Nc1ccc2nc(-c3ccco3)c(-c3ccco3)nc2c1,> 6.48 µM (inactive)
3,O=C(COc1ccccc1C(=O)OC1CCCC1=O)Nc1cccc(C(F)(F)F)c1 (stereo not drawn),> 6.77 µM (inactive)
4,Cc1cccc(N2CCN(C(=O)/C=C\C(=O)O)CC2)c1C,> 6.48 µM (inactive)
5,Cc1ccc2[nH]c(=O)c(=O)[nH]c2c1,> 12.1 µM (inactive)
6,O=C(CCCCC1SCC2NC(=O)NC21)NC1(c2ccc(F)cc2)CCCC1 (stereo not drawn),> 6.48 µM (inactive)
7,O=C(O)c1cc(C(=O)O)cc(-c2ccc(/C=N\n3cnnc3)o2)c1,> 6.48 µM (inactive)
8,O=C(Nc1ccc(-c2cn[nH]c2)c(C(F)(F)F)c1)C1COc2ccccc2O1 (stereo not drawn),> 6.48 µM (inactive)
9,COc1cc(-c2ccnc(N)n2)ccc1NC(=O)[C@H]1COc2ccccc2O1,> 6.48 µM (inactive)
10,CC(C)N(C)CCOC(=O)/C=C/c1ccco1,> 6.48 µM (inactive)
11,N#C/C(=C\c1nn(-c2ccccc2)c(N)c1C#N)c1ccco1,> 6.48 µM (inactive)
12,COc1cc(OC)c(C(=O)OC2CCCC2=O)cc1OC (stereo not drawn),> 7.05 µM (inactive)
13,O=C(NC1CCCCC1)N1CCN2C(=O)[C@@H]3CCCN3C(=O)[C@H]2C1,> 6.48 µM (inactive)
14,Nc1cc(Br)cnc1N,> 8.62 µM (inactive)
15,NC(=O)c1ccc(-c2cccs2)s1,> 7.32 µM (inactive)
16,O=C(CCCCC1SCC2NC(=O)NC21)NC1(c2ccc3c(c2)OCO3)CCCC1 (stereo not drawn),> 6.48 µM (inactive)
17,O=C(NCC(O)C(=O)N1CCOCC1)c1cccc(Nc2ccc3[nH]ncc3c2)n1 (stereo not drawn),> 6.48 µM (inactive)
18,Cn1c(SCc2cc(=O)n3c(n2)sc2ccccc23)nnc1C(F)(F)F,> 7.18 µM (inactive)
19,O=C(NCc1ccccc1)N1CCN2C(=O)[C@@H]3CSCN3C(=O)[C@H]2C1,> 6.48 µM (inactive)
20,O=C(O)c1cc(N/N=C/c2ccc(N3CCOCC3)s2)ccc1Cl,3.77 µM
21,O=C(/C=C/c1ccco1)NCCCCCCNC(=O)/C=C/c1ccco1,> 6.48 µM (inactive)
22,O=C1OC(c2ccc(Cl)cc2Cl)=N/C1=C\c1ccc([N+](=O)[O-])o1,> 6.05 µM (inactive)
23,COc1cc(C(=O)N2CCN(Cc3ccccc3C)CC2)cc(OC)c1OC,> 5.62 µM (inactive)

row,Structure (SMILES),IC50
1,C/C(=N\Nc1ccc(S(=O)(=O)O)cc1)c1cccc(Br)c1,> 6.48 µM (inactive)
2,CN(C)CCS(=O)c1cc(-c2cn[nH]c2)ccc1NC(=O)[C@@H]1Cc2cc(F)ccc2CN1 (stereo partly drawn),> 6.48 µM (inactive)
3,COc1ccc(OC)c(NC(=O)c2cc3ccc(O)cc3oc2=Nc2ccc(C(=O)O)cc2)c1,> 5.54 µM (inactive)
4,O=C1N[C@@H](CSCc2ccccc2)C(=O)N2CCN(C(=O)NCc3ccccc3)C[C@H]12,> 6.48 µM (inactive)
5,CC[C@@H]1NC(=O)[C@H]2CN(C(=O)NCc3ccccc3)CCN2C1=O,> 6.48 µM (inactive)
6,Cc1ccc(N2C(=O)c3ccccc3NC2c2cccc([N+](=O)[O-])c2)cc1 (stereo not drawn),> 5.15 µM (inactive)
7,CCCCNCCOc1ccccc1OCC,> 6.48 µM (inactive)
8,CN(C)C1C(=O)C(C(N)=O)=C(O)C2(O)C(=O)C3=C(O)c4c(O)cccc4C(C)(O)C3CC12 (stereo not drawn),> 6.48 µM (inactive)
9,CC(C)NC(=O)/C(C#N)=C/c1ccc(-c2ccc([N+](=O)[O-])cc2Br)o1,> 7.06 µM (inactive)
10,N#C/C(=C(/O)COC(=O)c1cc2c(s1)CCC2)c1nc2ccccc2[nH]1,> 7.1 µM (inactive)
11,CCC[C@@H]1NC(=O)[C@H]2CN(C(=O)NC3CCCCC3)CCN2C1=O,> 6.48 µM (inactive)
12,COc1cccc(CN2CCC(CNc3ccc(-c4ccncc4)cc3)C2)c1 (stereo not drawn),> 6.48 µM (inactive)
13,COc1ccc(CC2NCCc3cc(OC)c(OC)cc32)cc1OC (stereo not drawn),0.925 µM
14,O=C(c1ccc(=O)oc1)N1CCc2ccccc21,> 7.53 µM (inactive)
15,O=C(Nc1ccc(Cl)cc1Cl)N1CCN2C(=O)[C@@H]3CSCN3C(=O)[C@H]2C1,> 6.48 µM (inactive)
16,Cc1cc(C)n(C(=O)/C=C/c2ccco2)n1,> 6.48 µM (inactive)
17,CC(Oc1ccc2c(C(F)(F)F)cc(=O)oc2c1)C(=O)NN (stereo not drawn),> 6.56 µM (inactive)
18,N#Cc1cc([N+](=O)[O-])ccc1NC(=O)COC(=O)c1cc(-c2ccco2)nc2ccccc12,> 7.03 µM (inactive)
19,CC(=O)Nc1ccc(N2C(=O)c3ccccc3C2(O)Cc2ccccc2)cc1 (stereo not drawn),> 6.48 µM (inactive)
20,CN(C)c1ccc(O)c2c1C[C@H]1C[C@H]3[C@H](N(C)C)C(=O)C(C(N)=O)=C(O)[C@@]3(O)C(=O)C1=C2O,3.08 µM
21,Cc1cc(CSC(=N)N)c(O)c(C)n1,> 6.48 µM (inactive)
22,O=C(O)c1ccc(CNC(=O)c2cocc2C(=O)O)o1,> 7.32 µM (inactive)
23,COc1ccc(CN2CCN(Cc3cccc(Cl)c3)CC2)cc1Br,> 6.11 µM (inactive)

row,Structure (SMILES),IC50
1,CN(C)CCn1nnnc1SCC1=C(C(=O)O)N2C(=O)[C@@H](NC(=O)Cc3csc(N)n3)[C@H]2SC1,> 6.48 µM (inactive)
2,NC(=O)c1cncc(-c2cccs2)c1,> 6.5 µM (inactive)
3,O=P(O)(O)C(O)(CCNC(=S)Nc1ccccc1)P(=O)(O)O,> 6.83 µM (inactive)
4,CC(C)NC(=O)c1cccc(NC(=O)Nc2ccc(-c3ncnc4[nH]cc(Cl)c34)cc2)c1,> 6.48 µM (inactive)
5,O=c1[nH]c(-c2ccco2)nc2sc3c(c12)CCCC3,> 9.74 µM (inactive)
6,CC(C)[C@H]1NC(=O)[C@H]2CN(C(=O)NCc3ccccc3)CCN2C1=O,> 6.48 µM (inactive)
7,CN(C)[C@@H]1C(=O)C(C(N)=O)=C(O)[C@@]2(O)C(=O)C3=C(O)c4c(O)cccc4[C@@](C)(O)[C@H]3[C@H](O)[C@@H]12,4.11 µM
8,Cc1ccc(/C=C/C(=O)NCc2ccccn2)o1,> 6.48 µM (inactive)
9,COCCNC(=O)COC(=O)c1cc(-c2ccco2)nc2ccccc12,> 6.59 µM (inactive)
10,CCc1ccc(NC(=O)CCc2nc(C3=CCN(C)CC3)no2)cc1,> 6.48 µM (inactive)
11,CCN(CC)CC(=O)Nc1ccc(OC)cc1,> 6.48 µM (inactive)
12,NC(=O)CSc1ccc(C(N)=O)cc1[N+](=O)[O-],> 7.11 µM (inactive)
13,COc1cc(N2CCOCC2)ccc1Nc1cc(NC(C)(C)c2ccccc2)c(C(F)(F)F)cn1,> 6.48 µM (inactive)
14,O=[N+]([O-])c1ccc(N/N=C/c2ccco2)c(S(=O)(=O)N2CCOCC2)c1,> 6.48 µM (inactive)
15,O=C1N[C@H](Cc2ccccc2)C(=O)N2CCN(C(=O)NC3CCCCC3)C[C@H]12,> 6.48 µM (inactive)
16,COc1cc(/C=N/N=C2\NC(=O)C(CC(=O)O)S2)ccc1OCc1ccc(C)cc1 (stereo not drawn),> 6.48 µM (inactive)
17,Cc1sc2nc(C)n3c(=O)n(CC(=O)NCc4ccco4)nc3c2c1C,> 6.48 µM (inactive)
18,Brc1c(OCCN2CCNCC2)ccc2ccccc12,> 6.48 µM (inactive)
19,Cc1cc2ncn(Cc3noc(-c4ccco4)n3)c2cc1C,> 6.48 µM (inactive)
20,O=C(NC1CCCCC1)N1CCN2C(=O)[C@H]3CCCN3C(=O)[C@H]2C1,> 6.48 µM (inactive)
21,Cn1cc(-c2nc(Nc3ccc(-n4cnc(N5CCOCC5)n4)cc3)ncc2Br)cn1,> 6.48 µM (inactive)
22,Cc1n[nH]c(=O)nc1NNc1ccc(C(=O)O)cc1,> 6.48 µM (inactive)
